The values below come from patent publication US10294237B2, “Bicyclic heterocyclic amide derivative” (Sumitomo Dainippon Pharma Co., Ltd., priority 2015, dated 2019).

Experiment [1] deals with HCT-116 cells. Kind of experiment: Test for inhibiting sphere-forming ability of cancer cells. The experiment is classed as cell-based. Particulars: HCT-116 spheres, non-adherent, serum-free, 4 days, CellTiter-Glo, read-out: IC50 (Sphere IC50 value; concentration for 50% inhibition of cell proliferation). Here is the method: (§1) The reliable methods established for measuring the self-renewal ability of cells which is one of the CSC's properties include a method for measuring the sphere-forming ability of cancer cells in non-adherent condition in the absence of serum (Cancer Res 65, 5506-5511 (2005)). HCT-116 cells were available from the American Type Culture Collection (ATCC). HCT-116 cells were cultured at 37° C. and 5% CO2 using the McCoy's 5a medium containing 10% fetal bovine serum (FBS) and 1% penicillin/streptomycin. HCT-116 cells were seeded in a 384 Well Black Clear Bottom Ultra-Low Attachment Microplate (Corning Cat. No. 3827) in an amount of 350-800 cells/well using the DMEM/F12 medium containing 2% B27 supplement (GIBCO), 20 ng/mL epidermal growth factor (EGF) (peprotech), 10 ng/mL basic fibroblast growth factor (bFGF) (peprotech), 5 μg/mL insulin (Sigma), and 1% penicillin/streptomycin. The test compounds were added into each well to adjust the final concentration of DMSO to 0.1%, and the cells were cultured for 4 days. The number of viable cells in each well was then measured with CellTiter-Glo® Luminescent Cell Viability Assay (Promega) to calculate the concentration of each test compound for 50% inhibition of cell proliferation (Sphere IC50 value; μmol/L).
The experiment of Test Example 1 was performed for the compounds of each Example. The concentrations of each test compound for 50% inhibition of cell profeliration (Sphere IC50 value; μmol/L) are shown in the following Table.

Experiment [2] relates to HCT-116 cells. Nature of the experiment: Test for inhibiting sphere-forming ability of cancer cells (in the presence of BSA). The class given is cell-based. To be noted: HCT-116 spheres, non-adherent, 5% BSA, 4 days, CellTiter-Glo, read-out: IC50 (Sphere IC50 value; concentration for 50% inhibition of cell proliferation). Here is the method:
as §1, with “HCT-116” for “The reliable methods established for measuring the self-renewal ability of cells which is one of the CSC's properties include a method for measuring the sphere-forming ability of cancer cells in non-adherent condition in the absence of serum (Cancer Res 65, 5506-5511 (2005)). HCT-116”, “(Sigma), 5% bovine serum albumin (BSA),” for “(Sigma),”
The experiment of Test Example 2 was performed for the compounds of each Example. The concentrations of each test compound for 50% inhibition of cell profeliration (Sphere IC50 value; μmol/L) are shown in the following Table.
In general terms: In ATP-based viability assays light output follows the ATP content of the culture.

Molecules are shown by their SMILES. Structures can show the parent of a compound that is named as a salt.

As to `N#Cc1cccc(Cn2cnc(NC(=O)c3cnc4c(c3)CCNC4)c2)c1` [Example 63], the IC50 is 3590 nM in the experiment on HCT-116 cells [1] and 710 nM in the experiment with HCT-116 cells [2].
With `O=C(Nc1cn(Cc2ccccc2)cn1)c1ccc2c(c1)CCNC2` [Example 71], the IC50 in the experiment on HCT-116 cells [1] stood at 920 nM; in the experiment with HCT-116 cells [2], 770 nM.
Turning to `O=C(Nc1cn(Cc2cccc(C(F)(F)F)c2)cn1)c1ccc2c(c1)CCCN2` [Example 27], the IC50 in the experiment with HCT-116 cells [1] (Homo sapiens, 96 h) came out at 690 nM; with HCT-116 cells [2] (Homo sapiens, HCT-116, 96 h), 6010 nM.
`O=C(Nc1cn(Cc2ccccc2F)cn1)c1ccc2c(c1)CCNC2` [Example 72]: the 50% inhibitory concentration (IC50) in the experiment on HCT-116 cells [1] was found to be 3450 nM; with HCT-116 cells [2] it was 5460 nM.
Turning to `O=C(Nc1cn(Cc2cc(Br)cc(Br)c2)cn1)c1ccc2c(c1)CCNC2` [Example 96], the 50% inhibitory concentration (IC50) in the experiment on HCT-116 cells [1] (Homo sapiens, 96 h) came out at 60 nM; in the experiment with HCT-116 cells [2] (Homo sapiens, HCT-116, 96 h), 200 nM.
As to `O=C(Nc1cc2c(cn1)CNCC2)c1cn(Cc2ccc(F)c(F)c2)cn1` [Example 35, 1-(3,4-difluorobenzyl)-N-(5,6,7,8-tetrahydro-2,7-naphthyridin-3-yl)-1H-imidazole-4-carboxamide], the IC50 in the experiment on HCT-116 cells [1] (Homo sapiens, 96 h) was found to be 80 nM; in the experiment on HCT-116 cells [2] (Homo sapiens, HCT-116, 96 h), 50 nM.
Take `COc1ccc(Cn2cnc(NC(=O)c3ccc4c(c3)CCNC4)c2)cc1` [Example 84]: the half-maximal inhibitory concentration (IC50) with HCT-116 cells [1] is 6780 nM.
Take `O=C(Nc1cn(Cc2ccc3ccccc3c2)cn1)c1ccc2c(c1)CCNC2` [Example 103]: the IC50 in the experiment on HCT-116 cells [1] (Homo sapiens, 96 h) was 4180 nM; in the experiment on HCT-116 cells [2] (Homo sapiens, HCT-116, 96 h) it was 6100 nM.
In the case of `CN1CCc2cc(C(=O)Nc3cn(Cc4cccc(C(F)(F)F)c4)cn3)ccc2C1` [Example 30, 2-Methyl-N-{1-[3-(trifluoromethyl)benzyl]-1H-imidazol-4-yl}-1,2,3,4-tetrahydroisoquinoline-6-carboxamide], in the experiment with HCT-116 cells [1] (Homo sapiens, 96 h), the IC50 stood at 6160 nM.
For the compound `O=C(Nc1cn(Cc2ccc(F)c(F)c2)cn1)c1ccc2c(c1)CCNC2` [Example 73], the IC50 in the experiment on HCT-116 cells [1] is 610 nM; with HCT-116 cells [2], 540 nM.
For `O=C(Nc1cn(Cc2cc(F)c(F)c(F)c2)cn1)c1cc2c(cn1)CNCC2` [Example 8, N-[1-(3,4,5-trifluorobenzyl)-1H-imidazol-4-yl]-5,6,7,8-tetrahydro-2,7-naphthyridine-3-carboxamide], the IC50 amounted to 90 nM in the experiment with HCT-116 cells [1] (Homo sapiens, 96 h) and 440 nM in the experiment with HCT-116 cells [2] (Homo sapiens, HCT-116, 96 h).
`O=C(Nc1cc2c(cc1F)CNCC2)c1cn(Cc2cc(F)c(F)c(F)c2)cn1` [Example 1, N-(7-fluoro-1,2,3,4-tetrahydroisoquinolin-6-yl)-1-(3,4,5-trifluorobenzyl)-1H-imidazole-4-carboxamide]: the IC50 amounted to 80 nM with HCT-116 cells [1] (Homo sapiens, 96 h) and 170 nM in the experiment with HCT-116 cells [2] (Homo sapiens, HCT-116, 96 h).
As for `O=C(Nc1cn(CCCOc2ccccc2)cn1)c1cnc2c(c1)CCNC2` [Example 117], the half-maximal inhibitory concentration (IC50) with HCT-116 cells [1] came out at 6810 nM; with HCT-116 cells [2], 5680 nM.
`Cc1ccc(Cn2cnc(NC(=O)c3cnc4c(c3)CCNC4)c2)cc1` [Example 68]: the half-maximal inhibitory concentration (IC50) was determined as 560 nM with HCT-116 cells [1] and 650 nM in the experiment on HCT-116 cells [2].
In the case of `O=C(Nc1cn(Cc2ccc(F)c(C(F)(F)F)c2)cn1)c1cnc2c(c1)CCNC2` [Example 53, N-{1-[4-fluoro-3-(trifluoromethyl)benzyl]-1H-imidazol-4-yl}-5,6,7,8-tetrahydro-1,7-naphthyridine-3-carboxamide], the IC50 was found to be 60 nM in the experiment on HCT-116 cells [1] (Homo sapiens, 96 h) and 60 nM in the experiment with HCT-116 cells [2] (Homo sapiens, HCT-116, 96 h).
For `O=C(Nc1cn(Cc2cccc(F)c2)cn1)c1ccc2c(c1)CCNC2` [Example 77], the IC50 in the experiment with HCT-116 cells [1] came to 620 nM; in the experiment on HCT-116 cells [2], 600 nM.
Taken in the same sequence, the figures for `COc1cccc(Cn2cnc(NC(=O)c3ccc4c(c3)CCNC4)c2)c1` [Example 78] were 560 nM and 560 nM.
For the compound `O=C(Nc1cn(CCCc2ccccc2)cn1)c1cnc2c(c1)CCNC2` [Example 69], the 50% inhibitory concentration (IC50) in the experiment with HCT-116 cells [1] came to 760 nM; in the experiment on HCT-116 cells [2] it was 680 nM.
On to `Cc1ccccc1Cn1cnc(NC(=O)c2ccc3c(c2)CCNC3)c1` [Example 76], for which the IC50 was 680 nM in the experiment on HCT-116 cells [1] and 590 nM in the experiment with HCT-116 cells [2].
As for `O=C(Nc1cn(Cc2cc(F)cc(F)c2)cn1)c1cnc2c(c1)CCNC2` [Example 47, N-[1-(3,5-difluorobenzyl)-1H-imidazol-4-yl]-5,6,7,8-tetrahydro-1,7-naphthyridine-3-carboxamide], the IC50 was determined as 80 nM in the experiment on HCT-116 cells [1] (Homo sapiens, 96 h) and 50 nM in the experiment on HCT-116 cells [2] (Homo sapiens, HCT-116, 96 h).
Taken in the same sequence, the figures for `O=C(/C=C/c1ccc2c(c1)CCNC2)Nc1cn(Cc2cc(F)c(F)c(F)c2)cn1` [Example 112] were 710 nM and 6340 nM.
On to `O=C(Nc1cn(CCC2CCCCC2)cn1)c1ccc2c(c1)CCNC2` [Example 86], for which the IC50 with HCT-116 cells [1] was found to be 470 nM; in the experiment on HCT-116 cells [2], 560 nM.
On to `O=C(Nc1cn(Cc2cccc(C(F)(F)F)c2)cn1)c1nc2c(s1)CCNC2` [Example 20], for which, in the experiment with HCT-116 cells [1] (Homo sapiens, 96 h), the half-maximal inhibitory concentration (IC50) was 65200 nM.
`O=C(Nc1cn(Cc2ccc(C(F)(F)F)cc2)cn1)c1cnc2c(c1)CCNC2` [Example 64, N-{1-[4-(trifluoromethyl)benzyl]-1H-imidazol-4-yl}-5,6,7,8-tetrahydro-1,7-naphthyridine-3-carboxamide]: the concentration for half-maximal inhibition (IC50) in the experiment on HCT-116 cells [1] (Homo sapiens, 96 h) came out at 90 nM; in the experiment with HCT-116 cells [2] (Homo sapiens, HCT-116, 96 h), 170 nM.
For the compound `O=C(/C=C/c1ccc2c(c1)OCCO2)Nc1cn(Cc2cccc(Cl)c2)cn1` [Example 39], the concentration for half-maximal inhibition (IC50) in the experiment on HCT-116 cells [1] (Homo sapiens, 96 h) was found to be 910 nM; in the experiment with HCT-116 cells [2] (Homo sapiens, HCT-116, 96 h), 790 nM.
As for `O=C(Nc1cn(Cc2cccc(C(F)(F)F)c2)cn1)c1ccc2c(c1)CCC(O)C2` (stereo not shown) [Example 111, 6-Hydroxy-N-{1-[3-(trifluoromethyl)benzyl]-1H-imidazol-4-yl}-5,6,7,8-tetrahydronaphthalene-2-carboxamide], the IC50 was 690 nM in the experiment on HCT-116 cells [1] (Homo sapiens, 96 h) and 980 nM in the experiment with HCT-116 cells [2] (Homo sapiens, HCT-116, 96 h).
Take `O=C(Nc1cn(Cc2cccc(C(F)(F)F)c2)cn1)c1ccc2c(c1)CCNC2` [Example 26]: the half-maximal inhibitory concentration (IC50) with HCT-116 cells [1] (Homo sapiens, 96 h) worked out at 80 nM; with HCT-116 cells [2] (Homo sapiens, HCT-116, 96 h) it was 100 nM.
Regarding `O=C(Nc1cn(Cc2cccc(Cl)c2)cn1)c1ccc2c(n1)CCNC2` [Example 44], the concentration for half-maximal inhibition (IC50) was 780 nM in the experiment with HCT-116 cells [1] (Homo sapiens, 96 h) and 580 nM in the experiment on HCT-116 cells [2] (Homo sapiens, HCT-116, 96 h).
For `O=C(Nc1cn(Cc2ccc(Cl)cc2)cn1)c1cnc2c(c1)CCNC2` [Example 65, N-[1-(4-chlorobenzyl)-1H-imidazol-4-yl]-5,6,7,8-tetrahydro-1,7-naphthyridine-3-carboxamide], in that order: 80 nM and 380 nM.
Turning to `O=C(Nc1cn(Cc2cccc(C(F)(F)F)c2)cn1)c1ccc2c(c1)CCC1(C2)OCCO1` [Example 109, N-{1-[3-(Trifluoromethyl)benzyl]-1H-imidazol-4-yl}-3′,4′-dihydro-1′H-spiro[1,3-dioxolane-2,2′-naphthalene]-6′-carboxamide], the half-inhibitory concentration (IC50) in the experiment with HCT-116 cells [1] (Homo sapiens, 96 h) came out at 7070 nM.
Regarding `O=C(Nc1cn(Cc2ccc(C(F)(F)F)cc2)cn1)c1ccc2c(c1)CCNC2` [Example 83], the IC50 was 720 nM with HCT-116 cells [1] and 540 nM in the experiment on HCT-116 cells [2].
As for `O=C1CCc2cc(C(=O)Nc3cn(Cc4cc(F)c(F)c(F)c4)cn3)ccc2N1` [Example 37], the IC50 with HCT-116 cells [1] (Homo sapiens, 96 h) is 90 nM; in the experiment on HCT-116 cells [2] (Homo sapiens, HCT-116, 96 h), 590 nM.
With `O=C(Nc1cn(Cc2cccc(O)c2)cn1)c1ccc2c(c1)CCNC2` [Example 107], the IC50 with HCT-116 cells [2] (Homo sapiens, HCT-116, 96 h) turned out to be 6340 nM.
Consider `CC1(C)CNCc2ccc(C(=O)Nc3cn(Cc4cccc(C(F)(F)F)c4)cn3)cc21` [Example 32], for which the IC50 in the experiment with HCT-116 cells [1] (Homo sapiens, 96 h) was 72300 nM.
As for `O=C(Nc1cn(Cc2cccc(C(F)(F)F)c2)cn1)c1ccc2c(c1)CNC2` [Example 33], the IC50 with HCT-116 cells [1] (Homo sapiens, 96 h) is 1480 nM.
Same read-out and setting: as for `O=C(Nc1cn(Cc2cccc(C(F)(F)F)c2)cn1)c1ccc2c(c1)CCOC2` [Example 23], the figure is 4940 nM; as for `CC(=O)N1CCc2cc(C(=O)Nc3cn(Cc4cccc(C(F)(F)F)c4)cn3)ccc2C1` [Example 108, 2-Acetyl-N-{1-[3-(trifluoromethyl)benzyl]-1H-imidazol-4-yl}-1,2,3,4-tetrahydroisoquinoline-6-carboxamide trifluoroacetate], 6630 nM.
As for `O=C(Nc1cn(CC2CCOCC2)cn1)c1cnc2c(c1)CCNC2` [Example 118], the IC50 in the experiment on HCT-116 cells [2] amounted to 6180 nM.
On to `Nc1cccc(Cn2cnc(NC(=O)c3cnc4c(c3)CCNC4)c2)c1` [Example 67], for which, in the experiment with HCT-116 cells [2], the half-inhibitory concentration (IC50) is 8520 nM.

By IC50 is commonly meant the concentration at which inhibition is half-maximal.
